Source: patent US20240425464A1, “Substituted Monohydrazides as Potent Antifungal Agents” (University of Kentucky Research Foundation, priority 2023, published 2024)
≈ marks a conversion by molar mass, not a printed value.

Experiments:
C. auris AR Bank #386 = test: MIC determination by in vitro antifungal assay; type: cell-based, Candida auris; conditions: Candidozyma auris; C. auris AR Bank # 386 (Table 2B); read-out: MIC
Experimental: (§1) The antifungal agent amphotericin B (AmB) was purchased from VWR (Radnor PA, USA). AmB was dissolved in DMSO at a final concentration of 5 mg/mL and was stored at −20° C., protected from light. Candida albicans American Type Culture Collection (ATCC) 10231 (strain A), C. albicans ATCC 64124 (B), and C. albicans ATCC MYA-2876 (C) were obtained from Utah State University. C. albicans ATCC 90819 (D), C. albicans ATCC MYA-2310 (E), C. albicans ATCC MYA-1237 (F), C. albicans ATCC MYA-1003 (G), Candida glabrata ATCC 2001 (H), Candida krusei ATCC 6258 (I), Candida parapsilosis ATCC 22019 (J), Cryptococcus neoformans ATCC MYA-895 (M), Aspergillus terreus ATCC MYA-3633 (N), and Aspergillus flavus ATCC MYA-3631 (0) were obtained from the American Type Culture Collection (ATCC; Manassas, VA, USA). Aspergillus nidulans ATCC 38163 (P) was obtained from University of Kentucky. Clinically derived Aspergillus fumigatus NRRL 163 (Q), A. fumigatus NRRL 5109 (R), and A. fumigatus NRRL 6113 (S) were obtained from Northern Regional Research Laboratory (NRRL). Candida auris 384 (K), C. auris 390 (L), and fungal strains 381-400 (including 10 C. auris (AR Bank #381-390), 3 Candida duobushaemulonii (AR Bank #391, AR Bank #392, and AR Bank #394), 2 Candida haemulonii (AR Bank #393 and AR Bank #395), 1 Kodameae ohmeri (AR Bank #396), 1 C. krusei (AR Bank #397), 1 Candida lusitaniae (AR Bank #398), and 2 Saccharomyces cerevisiae strains (AR Bank #399 and AR Bank #400)) were part of a larger fungal library from the AR Bank maintained by the Centers for Disease Control and Prevention (CDC; Atlanta, GA, USA). Filamentous fungi and yeasts were cultivated at 35° C. in RPMI 1640 medium (with L-glutamine, without sodium bicarbonate, Sigma-Aldrich, St. Louis, MO) buffered to a pH of 7.0 with 0.165 M morpholinepropanesulfonic acid (MOPS) buffer (Sigma-Aldrich). For cytotoxicity assays, HepG2 and the mouse macrophage cell line J774A.1 were obtained from University of Kentucky. The human embryonic kidney cell line, HEK-293, was bought from the ATCC. Mammalian cells were grown in Dulbecco's Modified Eagle's Medium (DMEM) (from VWR) with 10% fetal bovine serum (FBS) (from VWR) and 1% Pen/Strep (from ATCC). Cell lines were cultured at 37° C. with 5% CO2 and passaged by trypsinization with 0.05% trypsin: 0.53 mM EDTA (from Sigma-Aldrich).
(§2) From the actively growing yeast culture, 100 µL were then transferred to 900 μL of RPMI 1640 medium and re-adjusted to achieve OD600 of 0.12 (˜1×10^6 CFU/mL). The cell suspension was further diluted to achieve 1:100 in RPMI 1640 medium.

C. auris AR Bank #382 = test: MIC determination by in vitro antifungal assay; type: cell-based, Candida auris; conditions: Candidozyma auris; C. auris AR Bank # 382 (Table 2B); read-out: MIC
Experimental: as §1, §2

C. auris AR Bank #381 = test: MIC determination by in vitro antifungal assay; type: cell-based, Candida auris; conditions: Candidozyma auris; C. auris AR Bank # 381 (Table 2B); read-out: MIC
Experimental: as §1, §2

C. auris AR Bank #383 = test: MIC determination by in vitro antifungal assay; type: cell-based, Candida auris; conditions: Candidozyma auris; C. auris AR Bank # 383 (Table 2B); read-out: MIC
Experimental: as §1, §2

C. auris AR Bank #389 = test: MIC determination by in vitro antifungal assay; type: cell-based, Candida auris; conditions: Candidozyma auris; C. auris AR Bank # 389 (Table 2B); read-out: MIC
Experimental: as §1, §2

C. auris AR Bank #385 = test: MIC determination by in vitro antifungal assay; type: cell-based, Candida auris; conditions: Candidozyma auris; C. auris AR Bank # 385 (Table 2B); read-out: MIC
Experimental: as §1, §2

C. auris AR Bank #388 = test: MIC determination by in vitro antifungal assay; type: cell-based, Candida auris; conditions: Candidozyma auris; C. auris AR Bank # 388 (Table 2B); read-out: MIC
Experimental: as §1, §2

C. auris AR Bank #387 = test: MIC determination by in vitro antifungal assay; type: cell-based, Candida auris; conditions: Candidozyma auris; C. auris AR Bank # 387 (Table 2B); read-out: MIC
Experimental: as §1, §2

[1] = system: Candida auris strain AR Bank #384 (K); test: MIC determination by in vitro antifungal assay; type: cell-based; conditions: Candidozyma auris, C. auris AR Bank # 384 (K) (Table 2B); read-out: MIC
Experimental: as §1, §2
(§3) Finally, the activity of these monohydrazides was explored against […] non-Candida strains: Cryptococcus neoformans ATCC MYA-895 (M), Aspergillus terreus ATCC MYA-3633 (N), Aspergillus flavus ATCC MYA-3631 (O), Aspergillus nidulans ATCC 38163 (P), Aspergillus fumigatus NRRL 163 (Q), A. fumigatus NRRL 5109 (R), and A. fumigatus NRRL 6113 (S) (Tables 1A and 1B). The double dilution method was used with concentrations ranging from 0.06 to 31.3 j·tg mL^−1 for monohydrazides 1a-9j, and the commercially available positive antifungal control amphotericin B (AmB).

[2] = system: C. auris strain AR Bank #390 (L); test: MIC determination by in vitro antifungal assay; type: cell-based, Candida auris; conditions: Candidozyma auris, C. auris AR Bank # 390 (L) (Table 2B); read-out: MIC
Experimental: as §1, §2, §3

[3] = system: panel of ten C. auris strains (AR Bank #381-390); test: MIC determination, summary over the C. auris panel; type: cell-based, Candida auris; conditions: Candidozyma auris; against all ten C. auris strains tested (AR Bank #381-390)
Experimental: as §1, §2

COc1cccc(NNC(=O)c2cccc(F)n2)c1 [Compound 5c]
MIC (C. auris AR Bank #386): 0.98 µg/mL (≈ 3.75 µM)
MIC (C. auris AR Bank #382): 0.49 µg/mL (≈ 1.88 µM)
MIC (C. auris AR Bank #381): 0.98 µg/mL (≈ 3.75 µM)
MIC (C. auris AR Bank #383): 1.95 µg/mL (≈ 7.46 µM)
MIC (C. auris AR Bank #389): 0.98 µg/mL (≈ 3.75 µM)
MIC (C. auris AR Bank #385): 0.98 µg/mL (≈ 3.75 µM)
MIC (C. auris AR Bank #388): 0.98 µg/mL (≈ 3.75 µM)
MIC (C. auris AR Bank #387): 0.49 µg/mL (≈ 1.88 µM)
MIC [1]: 0.49 µg/mL (≈ 1.88 µM)
MIC [2]: 3.9 µg/mL (≈ 14.9 µM)
MIC [3]: 0.12 to 7.8 µg/mL (≈ 0.459 to 29.9 µM)
